How the values were obtained:
quail chymotrypsin = assay: ATEE assay: inhibition of quail intestinal chymotrypsin activity; format: biochemical, Japanese quail; conditions: compound 1 x 10⁻⁵M; ATEE substrate; percentage inhibition of control activity ± standard deviation (n = 3); 5 min, 10 µM
Method: The substrate was prepared by dissolving ATEE (10 mg) in Tris-HCl buffer of pH 7.5 containing 30% (v/v) of methanol (25 ml). The quail intestine protease activity was partially purified as described above prior to testing for chymotrypsin activity. The reaction was carried out in a quartz cuvette (1 x 0.25 x 1 cm³) containing substrate (1 ml) and 100 mM Tris-HCl buffer (200 µl). The reaction was started by the addition of the partially purified intestine protease (200 µl) and followed bv the decrease in absorbance at 237 nm over a 5 minute period. All determinations were carried out in triplicate against a reagent blank.

feral pigeons [1] = assay: Four day two-choice feeding test with feral pigeons; format: in vivo; conditions: for Mean consumption of treated food: four day two-choice, 0.5% w/w compound/pellet; for deterrent effect on food consumption: two-choice test, proportions of treated and untreated food consumed, statement in words
Method: (§1) Feral pigeons were transferred from a communal outdoor aviary to individual cages and maintained on a 10 hour light - 14 hour dark cycle. Birds were gradually weaned away from their normal diet of maize, wheat and maple peas to a standard laboratory diet of turkey starter pellets.
(§2) The pellets were oven dried and then left to absorb atmospheric moisture. The control food was sprayed with the same volume of acetone/water mixture.
(§3) A group of 35 feral pigeons was caged individually for the trials which used eight compounds of formula (I) together with sucrose octaacetate and dimethyl anthranilate, both of which are substances which are known to be avian repellents. Each bird was subjected to treatment with each compound in a random order subject to the limitation of a latin square design. Each treatment was presented to the birds in no-choice and two-choice conditions. The no-choice phase lasted 3 days, during which a bird was presented with a single bowl containing 120 g of treated food. Each bird was weighed before and after the no-choice phase, as was the amount of food remaining. There immediately followed a two-choice phase in which the birds could choose between food treated with a given chemical and a bowl containing otherwise identical pellets without the chemical (the control treatment utilising two bowls of acetone/water treated pellets, one of which was arbitrarily selected as the control). The two-choice phase lasted four days during which food consumption was monitored daily. The position of the food bowls was alternated each day in order to overcome the confusing of food preference with position preference and ample water and grit were supplied throughout the trial.
The data obtained in the four day two-choice test is presented in Table 5 for mean consumption of treated food. […]

feral pigeons [2] = assay: Three day no-choice feeding test with feral pigeons; format: in vivo; conditions: 0.5% w/w compound/pellet, ± standard deviation; for Mean weight difference: after the test compared with before; for Mean consumption: treated food
Method: as §1, §2, §3

pigeon trypsin = assay: TAME assay: inhibition of pigeon intestinal trypsin activity; format: biochemical; conditions: for Inhibition of Activity: compound 60 µg/ml, TAME substrate, percentage inhibition of control activity ± standard deviation (n = 3), 5 min
Method: (§4) Dried avian intestine powder (500 mg) was extracted for 30 minutes in 1 mM HC₁ (5 ml). The extract was centrifuged at 22,000 x g for 30 minutes at 4°C. The resultant supernatant was applied to a column of Sephadex G-50, medium grade (360 mm x 15 mm) and eluted with 0.5 mM HCl at 0.7 ml/min. Fractions (3.5 ml) were collected and tested for the presence of protein by determining their absorbance at 280 nm. The proteinaceous fractions were bulked and concentrated by passing them through an ultrafiltration unit (YM 30 filter). The concentrate was collected and kept at 4°C throughout its use.
The substrate was prepared by dissolving TAME (19 mg) in a mixture of 100 mM Tris-HCl buffer of pH 7.5 (50 ml) and 5% (w/v) calcium chloride solution (2 ml). The pigeon intestine protease was partially purified as described above prior to testing for trypsin activity. The reaction was carried out in a quartz cuvette (1 x 0.25 x 1 cm³) containing substrate (3 ml) and 100 mM Tris-HCl buffer pH 7.5 (100 µl). The reaction was started by the addition of the partially purified intestine protease (100 µl) and followed by the decrease in absorbance at 247 nm over a 5 minute period.
(§5) In both the chymotrypsin and the trypsin assays a control was however carried out using the 200 µl of buffer containing no added compound.

bullfinch trypsin = assay: BAEE assay: inhibition of bullfinch intestinal trypsin activity; format: biochemical; conditions: compound 1 x 10⁻⁵M; BAEE substrate; percentage inhibition of control activity ± standard deviation (n = 3); 7 min, 10 µM
Method: as §4
The substrate was prepared bv dissolving BAEE (10 mg) in a mixture of 50 mM Tris-HCl buffer of pH 7.5 (24 ml) and 5% (w/v) calcium chloride solution (1 ml). The bullfinch intestine protease activity was partially purified as described above prior to testing for trypsin activity. The reaction was carried out in a quartz cuvette (1 x 0.25 x 1 cm³) containing substrate (1 ml) and 50 mM Tris-HCl buffer (200 µl). The reaction was started by the addition of the partially purified intestine protease 1200 µl) and followed by the decrease in absorbance at 253 nm over a 7 minute period. All determinations were carried out in triplicate against a reagent blank.
as §5

Japanese quail [3] = assay: No choice feeding trial with Japanese quail; format: in vivo; conditions: 5,000 ppm additive in turkey starter crumbs, 14 days, ± standard deviation
Excerpt: (§6) (A) Six week old female japanese quail were preconditoned by weighing them seven days before the start of the feeding trial. Five quail were placed in each of four cages and each cage was provided with a different diet, these being (a) a control diet of standard turkey starter crumbs (TSC), (b) TSC treated with 5,000 ppm cinnamamide, (c) TSC treated with 5,000 ppm 4-hydroxy-3,5-dimethoxycinnamic acid, and (d) TSC treated with 2,500 ppm cinnamamide + 2,500 ppm 4-hydroxy-3,5-dimethoxycinnamic acid. The treated TSC was prepared in each case by dissolving/-suspending the compound or compounds in diethyl ether (1500 ml) and mixing this with TSC (2000 g) at 0.25% or 0.5% w/w concentration compound/TSC in an industrial food mixer for 1 hour to evaporate off the diethyl ether and produce a homogeneous mixture. The control was prepared by mixing TSC (2000 g) with diethyl ether for 1 hour in an industrial food mixer. The amount of each diet consumed and the weight gain of the birds was recorded on a daily basis for a period of 14 days. The trial was carried out in duplicate.
The results of the trial are presented in Table 2, together with the standard deviation. It will be seen that diets (b) and (d) produced a decreased increase in body weight as compared with the control diet (a). It should be appreciated that increased consumption, which apparently occurs with diets (c) and (d), can be the result of a compensation against the occurrence of the enzyme inhibitory effect and a consequent reduction in value of the food consumed.

Japanese quail [4] = assay: Feeding trial with choice, Japanese quail; format: in vivo; conditions: for Increase in body weight: value is for the birds offered both diets; for Average food eaten: treated diet eaten
Excerpt: as §6
(B) In a variation of the treatment decribed in (A) four quail were placed in each of four cages and each cage was offered a choice between a control diet of TSC and TSC treated with one of (a) 5,000 ppm cinnamamide, (b) 2,500 ppm cinnamamide, (c) 1,000 ppm cinnamamide, and (d) 2,500 ppm cinnamamide + 2,500 ppm 4-hydroxy-3,5-dimethoxycinnamic acid. The various diets were prepared as described under (A).
The results of the trial are presented in Table 3, together with the standard deviation. It will be seen that in each case the birds consume less treated than untreated food and that although the weight gain was the least for the birds offered the control + 5,000 ppm cinnamamide diets, it was the 2,500 ppm cinnamamide + 2,500 ppm 4-hydroxy-3,5-dimethoxycinnamic acid diet which was least consumed.

[5] = choice between control diet and diet with 1,000 ppm additive
[6] = choice between control diet and diet with 2,500 ppm additive
[7] = choice between control diet and diet with 5,000 ppm additive

With `O=C(O)Cc1ccccc1` [Phenylacetic acid, reference compound] the “Inhibition of Activity Chymotrypsin” value (quail chymotrypsin) was 13 ± 2 percentage.

In the case of `O=C(O)CCc1ccccc1` [Hydrocinnamic acid], the “Inhibition of Activity Chymotrypsin” value (quail chymotrypsin) is reported as 19 ± 3 percentage.

For `COc1ccc(C=CC(=O)O)cc1OC` [3,4-Dimethoxycinnamic acid], the “Mean consumption of treated food” value (feral pigeons [1]) was 27.1 ± 2.8 grams, the “Inhibition of Activity Chymotrypsin” value (quail chymotrypsin) was 83 ± 3 percentage and the Mean weight difference (feral pigeons [2]) was -1.1 ± 0.9 grams. For the same compound, the Mean consumption (feral pigeons [2]) was 55.3 ± 2.3 grams and the “Inhibition of Activity” value (pigeon trypsin) was 16 ± 1 percentage.

With `CC(=Cc1ccccc1)C(=O)O` [α-Methylcinnamic acid] the “Inhibition of Activity Chymotrypsin” value (quail chymotrypsin) was 36 ± 3 percentage.

For `COc1cccc(C=CC(=O)O)c1` [3-Methoxycinnamic acid], the “Inhibition of Activity Chymotrypsin” value (quail chymotrypsin) was 56 ± 4 percentage.

`COc1cc(C=CC(=O)O)ccc1O` [4-Hydroxy-3-methoxycinnamic acid] was tested, and the “Mean consumption of treated food” value (feral pigeons [1]) was 22.7 ± 2.4 grams, the Mean weight difference (feral pigeons [2]) was -0.2 ± 1.1 grams and the Mean consumption (feral pigeons [2]) was 54.5 ± 2.9 grams. The “Inhibition of Activity” value (pigeon trypsin) was 16 ± 4 percentage.

`O=C(C=Cc1ccc(O)c(O)c1)OC1CC(O)(C(=O)O)CC(O)C1O` (stereo not shown) [3-(3',4'-Dihydroxycinnamoyl)-quinic acid] was tested, and the “Inhibition of Activity” value (pigeon trypsin) was 3 ± 1 percentage.

In the case of `COc1cc(C=CC(=O)O)cc(OC)c1O` [4-Hydroxy-3,5-dimethoxy-cinnamic acid, 4-Hydroxy-3,5-dimethoxycinnamic acid], the “Mean consumption of treated food” value (feral pigeons [1]) is reported as 29.2 ± 2.8 grams, the “Inhibition of Activity Chymotrypsin” value (quail chymotrypsin) is reported as 94 ± 2 percentage and the “Inhibition of Activity Trypsin” value (bullfinch trypsin) is reported as 22 ± 2 percentage. The Mean weight difference (feral pigeons [2]) was 2.3 ± 0.9 grams, the Mean consumption (feral pigeons [2]) was 60.2 ± 3.3 grams and the “Inhibition of Activity” value (pigeon trypsin) was 16 ± 4 percentage. For the same compound, the Average food eaten (Japanese quail [3]) was 21 ± 0.3 g/bird/day and the “Increase in body weight” value (Japanese quail [3]) was 0.89 ± 0.10 g/bird/day.

In the case of `O=C(O)C=Cc1cccc(O)c1` [3-Hydroxycinnamic acid], the “Inhibition of Activity Chymotrypsin” value (quail chymotrypsin) is reported as 43 ± 2 percentage.

`CC(=O)OC[C@H]1O[C@@](COC(C)=O)(O[C@H]2O[C@H](COC(C)=O)[C@@H](OC(C)=O)[C@H](OC(C)=O)[C@H]2OC(C)=O)[C@@H](OC(C)=O)[C@@H]1OC(C)=O` [Sucrose octaacetate, reference compound] was tested, and the “Mean consumption of treated food” value (feral pigeons [1]) was 28.6 ± 2.4 grams, the Mean weight difference (feral pigeons [2]) was 2.3 ± 0.9 grams and the Mean consumption (feral pigeons [2]) was 54.0 ± 2.6 grams.

`CC(C=O)=Cc1ccccc1` [α-Methylcinnamaldehyde] was tested, and the “Inhibition of Activity Chymotrypsin” value (quail chymotrypsin) was 17 ± 5 percentage.

For `COc1cc(C=CC(=O)O)cc(OC)c1` [3,5-Dimethoxycinnamic acid], the “Mean consumption of treated food” value (feral pigeons [1]) was 12.1 ± 1.7 grams, the “deterrent effect on food consumption” value (feral pigeons [1]) was “most marked” and the “Inhibition of Activity Chymotrypsin” value (quail chymotrypsin) was 63 ± 1 percentage. For the same compound, the Mean weight difference (feral pigeons [2]) was -12.9 ± 1.2 grams, the Mean consumption (feral pigeons [2]) was 33.1 ± 1.5 grams and the “Inhibition of Activity” value (pigeon trypsin) was 14 ± 1 percentage.

In the case of `O=C(O)C=Cc1ccc(O)cc1` [4-Hydroxycinnamic acid, 4-hydroxycinnamic acid], the “Inhibition of Activity Chymotrypsin” value (quail chymotrypsin) is reported as 12 ± 1 percentage.

In the case of `COc1cc(C(=O)O)cc(OC)c1O` [4-Hydroxy-3,5-dimethoxy-benzoic acid, reference compound], the “Inhibition of Activity Chymotrypsin” value (quail chymotrypsin) is reported as 2 ± 2 percentage.

With `N#CC=Cc1ccccc1` [Cinnamonitrile] the “Inhibition of Activity Chymotrypsin” value (quail chymotrypsin) was 23 ± 1 percentage.

For `NC(=O)C=Cc1ccccc1` [Cinnamamide, cinnamamide], the “Mean consumption of treated food” value (feral pigeons [1]) was 6.0 ± 1.5 grams, the “deterrent effect on food consumption” value (feral pigeons [1]) was “most marked” and the “Inhibition of Activity Chymotrypsin” value (quail chymotrypsin) was 5 ± 1 percentage. The “Inhibition of Activity Trypsin” value (bullfinch trypsin) was 64 ± 2 percentage, the Mean weight difference (feral pigeons [2]) was -16.2 ± 1.3 grams and the Mean consumption (feral pigeons [2]) was 22.3 ± 2.7 grams. For the same compound, the “Inhibition of Activity” value (pigeon trypsin) was 0 percentage, the “activity against pigeon intestinal trypsin” value (pigeon trypsin; statement in words) was “no activity was observed” and the Average food eaten (Japanese quail [3]) was 17 ± 0.3 g/bird/day. The “Increase in body weight” value (Japanese quail [3]) was 0.14 ± 0.04 g/bird/day, the “Increase in body weight” value (Japanese quail [4]; [5]) was 1.29 ± 0.10 g/bird/day and the “Increase in body weight” value (Japanese quail [4]; [6]) was 1.34 ± 0.20 g/bird/day. For the same compound, the “Increase in body weight” value (Japanese quail [4]; [7]) was 0.66 ± 0.10 g/bird/day, the “deterrent effect on food consumption” value (Japanese quail [4]; quail, statement in words) was “a deterrent effect on food consumpton was noted” and the Average food eaten (Japanese quail [4]; [5]) was 6 ± 0.2 g/bird/day. It also gave an Average food eaten (Japanese quail [4]; [6]) of 5 ± 0.4 g/bird/day and an Average food eaten (Japanese quail [4]; [7]) of 4 ± 0.2 g/bird/day.

For `COc1cc(C=CC(=O)O)cc(OC)c1OC` [3,4,5-Trimethoxycinnamic acid], the “Mean consumption of treated food” value (feral pigeons [1]) was 19.8 ± 2.7 grams, the “deterrent effect on food consumption” value (feral pigeons [1]) was “most marked” and the “Inhibition of Activity Chymotrypsin” value (quail chymotrypsin) was 88 ± 2 percentage. For the same compound, the “Inhibition of Activity Trypsin” value (bullfinch trypsin) was 36 ± 1 percentage, the Mean weight difference (feral pigeons [2]) was -1.5 ± 0.9 grams and the Mean consumption (feral pigeons [2]) was 53.0 ± 2.1 grams. For the same compound, the “Inhibition of Activity” value (pigeon trypsin) was 0 percentage.

`OCC=Cc1ccccc1` [Cinnamyl alcohol] was tested, and the “Inhibition of Activity Chymotrypsin” value (quail chymotrypsin) was 20 ± 6 percentage.

For `O=C(O)c1ccccc1` [Benzoic acid, reference compound], the “Inhibition of Activity Chymotrypsin” value (quail chymotrypsin) was 14 ± 1 percentage.

`O=CC=Cc1ccccc1` [Cinnamaldehyde] was tested, and the “Inhibition of Activity Chymotrypsin” value (quail chymotrypsin) was 57 ± 4 percentage.

With `CNc1ccccc1C(=O)OC` [Dimethylanthranilate, Dimethyl anthranilate, reference compound] the “Mean consumption of treated food” value (feral pigeons [1]) was 18.2 ± 2.4 grams, the Mean weight difference (feral pigeons [2]) was -4.8 ± 2.0 grams and the Mean consumption (feral pigeons [2]) was 45.9 ± 2.9 grams. The “Inhibition of Activity” value (pigeon trypsin) was 9 ± 2 percentage.
